The results in this text go back to patent US20230096766A1, “AMINO ACID HAVING FUNCTIONAL GROUP CAPABLE OF INTERMOLECULAR HYDROGEN BONDING, PEPTIDE COMPOUND CONTAINING SAME AND METHOD FOR PRODUCTION THEREOF” (Chugai Seiyaku Kabushiki Kaisha, priority 2018, published 2023).

*1 amine or outer side, *2 acyl side, *3 side chain or, on linkers, in order; H or OH if unused. Where a SMILES comes first, the peptide text is derived from it. Bridges are numbered along the chain shown (N, C = ends). [ ]: non-standard residue; d: D form. The star is where a group is joined. NMeHph(3-OMe-4-CONHMe) = CNC(=O)c1ccc(CC[C@H](NC)C(=O)O)cc1OC; X5 = O=C([C@H](CCC[C@@H]1CC(F)(F)CN1)N[*:1])[*:2]; Phe(4-COOH) = N[C@@H](Cc1ccc(C(=O)O)cc1)C(=O)O; X13 = O=C(C1CCCCC1)[C@H](CC(=O)[*:2])N[*:1]; Ethyl(2-morpholino) = C1CN(CC*)CCO1; X9 = O=C([C@@H](CN[*:1])COCCO)[*:2]; NMeF = CN[C@@H](Cc1ccccc1)C(=O)O; NMeGABA = CN(CCCC(=O)[*:2])[*:1]; CH2CH(OH)CF3 = OC(C*)C(F)(F)F; NMeL = CN[C@@H](CC(C)C)C(=O)O; NMeV = CN[C@H](C(=O)O)C(C)C; NMeAbu = CC[C@H](NC)C(=O)O; NMeA = CN[C@@H](C)C(=O)O; Piperidide = C1CCN(*)CC1; NBuGly = CCCCNCC(=O)O; NPrGly = CCCNCC(=O)O; N(OH)Me = CN(O)*; Sar = CNCC(=O)O; tBu = CC(C)(C)*

A short description of data set [1]: Membrane permeability test of cyclic peptides (Caco-2, modified/improved method of WO 2018/124162). The following applies: human.
A further data set is described as follows: in vitro. The note with it: human.

In turn, `CC(C)C[C@H]1C(=O)N[C@@H](COC(C)(C)C)C(=O)N(C)[C@@H](Cc2ccccc2)C(=O)N(C)[C@@H](CC(C)C)C(=O)N[C@H](C(=O)C2CCCCC2)CC(=O)N[C@H](C(C)C)C(=O)N(C)[C@@H](Cc2ccccc2)C(=O)N[C@@H](COCC(O)C(F)(F)F)C(=O)N(C)[C@@H](CC(C)C)C(=O)N[C@@H](C(C)C)C(=O)N(C)CC(=O)N1C` (stereo partly shown) [Compound D11] (cyclo([NMeF][NMeL][X13][dV][NMeF]S(CH2CH(OH)CF3)[NMeL]V[Sar][NMeL]S(tBu))) gave a Papp in data set [1] (Caco-2, Caco-2 (membrane permeability), Table 6, cyclic peptides containing Ser(1-CF3-EtOH) (C) or Hnl(7-F3-6-OH) (D)) of 0.21 ×10⁻⁶ cm/s.
Take `CNC(=O)c1ccc(CC[C@H]2C(=O)N[C@@H](CC(C)C)C(=O)N(C)[C@@H](CC(C)C)C(=O)N[C@@H]([C@@H](C)O)C(=O)N(C)CC(=O)N(C)[C@@H](CC(C)C)C(=O)N[C@@H](CC(C)C)C(=O)N(C)[C@@H](Cc3ccccc3)C(=O)N(C)[C@@H](CC(C)C)C(=O)N[C@H](C(=O)N3CCCCC3)CC(=O)N[C@H](C(C)C)C(=O)N2C)cc1OC` [AP224] ([dV][NMeHph(3-OMe-4-CONHMe)]L[NMeL]T[Sar][NMeL]L[NMeF][NMeL]D-Piperidide; lactam N-11): in data set [1] (Caco-2, Caco-2 (cm/sec), membrane permeability of cyclic peptides, Caco-2), the Papp came to 1.1 ×10⁻⁶ cm/s.
On to `CC(C)C[C@@H]1NC(=O)[C@H](C)N(C)C(=O)C[C@@H](C(=O)N2CCCCC2)NC(=O)[C@H](CC(C)C)N(C)C(=O)CN(C)C(=O)[C@H](CCC[C@@H]2CC(F)(F)CN2)NC(=O)[C@H](CC(C)C)N(C)C(=O)[C@H](CC(C)C)N(C)C(=O)[C@H](CC(C)C)NC(=O)[C@H](Cc2ccccc2)N(C)C(=O)[C@H](C)N(C)C1=O` [Compound H10] ([NMeA]L[NMeA][NMeF]L[NMeL][NMeL][X5][Sar][NMeL]D-Piperidide; lactam N-11), for which, in data set [1] (Caco-2, Caco-2 (membrane permeability), Table 10, cyclic peptides containing Ser(S-4-F2-Pyrro-Me) (G) or Nva(2-R-4-F2-Pyrro) (H)), the Papp was determined as 0.43 ×10⁻⁶ cm/s.
As to `CC[C@H](C)[C@@H]1NC(=O)[C@H](CC(C)C)N(C)C(=O)CCCN(C)C(=O)C[C@@H](C(=O)N2CCCCC2)NC(=O)[C@H](CC(C)C)N(C)C(=O)[C@H](CC(C)C)N(C)C(=O)[C@H](COCCN2CCOCC2)NC(=O)[C@H](CC(C)C)N(C)C(=O)[C@H](COC(C)(C)C)NC(=O)[C@H](CC)N(C)C(=O)[C@H](Cc2ccccc2)N(C)C1=O` [pd485] ([NMeGABA][NMeL]I[NMeF][NMeAbu]S(tBu)[NMeL]S(Ethyl(2-morpholino))[NMeL][NMeL]D-Piperidide; lactam N-11), the apparent permeability coefficient (Papp) in data set [1] (Caco-2, Caco-2, Papp, membrane permeability, cyclic peptides comprising MeAbu(pip-4-F2), MeAbu(Mor), Ser(Et-2-Mor), MeAbu(pip-3-F2) or Abu(5-Oxo-Odz) (Table 29)) is 1.2 ×10⁻⁶ cm/s.
The compound `CC(C)C[C@@H]1NC(=O)[C@H](CC(C)C)N(C)C(=O)C[C@@H](C(=O)N2CCCCC2)NC(=O)[C@H](CC(C)C)N(C)C(=O)CN(C)C(=O)[C@H]([C@@H](C)O)NC(=O)[C@H](C(C)C)N(C)C(=O)[C@H](CC(C)C)N(C)C(=O)[C@H](Cc2ccc(C(=O)N(C)O)cc2)NC(=O)[C@H](CC(C)C)N(C)C(=O)[C@H](CC(C)C)N(C)C1=O` [AP253] ([NMeL]L[NMeL][NMeL][Phe(4-COOH)](N(OH)Me)[NMeL][NMeV]T[Sar][NMeL]D-Piperidide; lactam N-11) came in with a Papp in “in vitro” (Caco-2, Caco-2 (cm/sec)) of 0.12 ×10⁻⁶ cm/s.
In “in vitro” (Caco-2, Caco-2 (membrane permeability)), `CCCCN1CC(=O)N(C)[C@@H](CC(C)C)C(=O)N[C@@H](COCC(O)C(F)(F)F)C(=O)N(C)[C@@H](Cc2ccccc2)C(=O)N(C)[C@@H](C(C)C)C(=O)N[C@H](C(=O)N2CCCCC2)CC(=O)N[C@H](C(C)C)C(=O)N(C)[C@@H](Cc2ccccc2)C(=O)N[C@@H](CC(C)C)C(=O)N(C)[C@@H](CC(C)C)C(=O)N[C@@H]([C@@H](C)O)C1=O` (stereo partly drawn) [Compound C09] ([dV][NMeF]L[NMeL]T[NBuGly][NMeL]S(CH2CH(OH)CF3)[NMeF][NMeV]D-Piperidide; lactam N-11) registered a Papp of 0.12 ×10⁻⁶ cm/s.
Turning to `CCCCN1CC(=O)N(C)[C@@H](Cc2ccccc2)C(=O)NC[C@@H](COCCO)C(=O)N(C)[C@@H](CC(C)C)C(=O)N[C@@H]([C@@H](C)O)C(=O)N(CCC)CC(=O)N(C)[C@@H](Cc2ccccc2)C(=O)N(C)[C@@H](CC(C)C)C(=O)N[C@@H](CC(C)C)C(=O)N(C)[C@@H](CC(C)C)C(=O)N[C@H](C(=O)N2CCCCC2)CC1=O` [AP133] ([NBuGly][NMeF][X9][NMeL]T[NPrGly][NMeF][NMeL]L[NMeL]D-Piperidide; lactam N-11), the apparent permeability coefficient (Papp) in the data set “in vitro” (Caco-2, Caco-2 (cm/sec)) was found to be 1.8 ×10⁻⁶ cm/s.
